Results from US11873298B2, “Compounds and uses thereof” (JANSSEN PHARMACEUTICA NV, priority 2017, dated 2024).

Assays:
SCD5 = target: T1, SCD5 (Homo sapiens, UniProt Q86SK9); experiment: Growth inhibition of humanized yeast strain expressing SCD5 as sole desaturase; type: cell-based
T1 construct: host or cells: S. cerevisiae ole1Δ strain (W303 pdr1Δ pdr3Δ background), plasmid pRS316 with TDH3 promoter and CYC1 terminator
T1 sequence (Q86SK9 1-330): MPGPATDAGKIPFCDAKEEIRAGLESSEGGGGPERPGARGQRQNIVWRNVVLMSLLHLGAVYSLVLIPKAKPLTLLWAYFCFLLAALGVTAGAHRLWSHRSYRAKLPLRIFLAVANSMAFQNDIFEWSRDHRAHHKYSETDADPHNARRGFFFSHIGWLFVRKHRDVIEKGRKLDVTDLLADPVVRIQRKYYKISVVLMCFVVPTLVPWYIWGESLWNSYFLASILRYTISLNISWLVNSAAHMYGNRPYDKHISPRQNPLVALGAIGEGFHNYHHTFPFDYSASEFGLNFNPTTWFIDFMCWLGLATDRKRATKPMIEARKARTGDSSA
How it was run: (§1)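 OD600 growth read-out. ole1Δ yeast, pdr1Δ pdr3Δ, with Ole1/SCD1/SCD5 on a plasmid; SX-Ura media throughout; 2× cell density 0.02 in CSM-Galactose; DMSO compound dilutions; humidified 30° C.; Ole1 stopped at 24 h, SCD1/SCD5 at 40 h.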

SCD1 = target: T2, SCD1 (Homo sapiens, UniProt O00767); experiment: Growth inhibition of humanized yeast strain expressing SCD1 as sole desaturase; type: cell-based
T2 construct: host or cells: S. cerevisiae ole1Δ strain (W303 pdr1Δ pdr3Δ background), plasmid pRS316 with TDH3 promoter and CYC1 terminator
T2 sequence (O00767 1-359): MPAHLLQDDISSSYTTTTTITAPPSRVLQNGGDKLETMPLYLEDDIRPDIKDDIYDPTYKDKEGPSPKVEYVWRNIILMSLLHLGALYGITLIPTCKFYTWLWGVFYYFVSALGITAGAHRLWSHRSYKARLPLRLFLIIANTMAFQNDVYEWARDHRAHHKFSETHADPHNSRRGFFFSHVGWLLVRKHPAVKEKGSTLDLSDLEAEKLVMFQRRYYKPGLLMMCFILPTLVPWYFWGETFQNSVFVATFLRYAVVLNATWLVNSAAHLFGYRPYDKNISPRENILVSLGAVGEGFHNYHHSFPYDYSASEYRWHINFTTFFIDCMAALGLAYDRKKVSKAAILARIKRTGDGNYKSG
How it was run: as §1

[1] = growth inhibition of humanized yeast strain expressing human SCD5
[2] = growth inhibition of humanized yeast strain expressing human SCD1
[3] = humanized yeast strain expressing SCD5
[4] = humanized yeast strain expressing SCD1

Compound | IC50 (SCD5; humanized yeast strain, 40 h) | IC50 (SCD1; humanized yeast strain, 40 h) | other results
CC(C)n1ncc2ccc(-c3noc(C4CCN(C(=O)C5(C)CCCO5)CC4)n3)cc21 (stereo not drawn) [Compound 703] |  |  | IC50 (SCD5; [1]): 0.121 µM; IC50 (SCD1; [2]): > 45 µM
O=C(OC1CCC1)N1CCC(c2nnc(-c3ccc4cnn(C5CCOC5)c4c3)o2)CC1 (stereo not drawn) [Compound 1084] | 0.027 µM | > 45 µM | 
O=C(C1CCC1)N1CCN(c2noc(-c3ccc4cnn(C5COC5)c4c3)n2)CC1 [Compound 838] | 0.021 µM | > 45 µM | 
CC(C)(C)OC(=O)N1CCC(c2noc(-c3ccc(OC4COC4)c(NC4COC4)c3)n2)CC1 [Compound 1006] | 0.637 µM | > 45 µM | 
CC(C)n1ncc2ccc(-c3noc([C@H]4CC[C@H](O)CC4)n3)cc21 [Compound 634] |  |  | IC50 (SCD5; [1]): ≥ 45 µM; IC50 (SCD1; [2]): > 45 µM
CC(C)(C)OC(=O)N1CCC(c2nc(-c3ccc4cnn(C5CN(C(=O)OC(C)(C)C)C5)c4c3)no2)CC1 [Compound 652] |  |  | IC50 (SCD5; [1]): > 45 µM; IC50 (SCD1; [2]): > 45 µM
COC(=O)N1CCC(c2nnc(-c3ccc4cnn(C5COC5)c4c3)o2)CC1 [Compound 871] | 9.54 µM | > 45 µM | 
CC(C)(C)OC(=O)N1CCC(c2nc(-c3ccc4cncn4c3)no2)CC1 [Compound 825] | 9.49 µM | > 45 µM | 
CC(C)(C)OC(=O)N1CCC(c2ccc(-c3ccc4cnn(C5COC5)c4c3)cc2)CC1 [Compound 967] | 1.52 µM | > 45 µM | 
CC(C)C(=O)N1CCC(c2noc(-c3cccc(C4CCOC4)n3)n2)CC1 (stereo not drawn) [Compound 1188] | > 45 µM | > 45 µM | 
C[C@@H]1C[C@H](c2noc(-c3ccc4cnn(C5COC5)c4c3)n2)CCN1C(=O)OC(C)(C)C [Compound 1017] | 0.01 µM | 17.1 µM | 
O=C(OC1CC1)N1CCC(c2noc(-c3cnc4cnn(C5COC5)c4c3)n2)CC1 [Compound 1139] | 0.096 µM | > 45 µM | 
CC(C)n1ncc2ccc(-c3nc(C4CCN(C(=O)OC5(C)CC5)CC4)no3)cc21 [Compound 628] |  |  | IC50 (SCD5; [1]): 0.01 µM; IC50 (SCD1; [2]): > 45 µM
CC(C)(C)OC(=O)N1CCC(c2nc(-c3cccc(OC4COC4)c3)no2)CC1 [Compound 672] |  |  | IC50 (SCD5; [1]): 0.441 µM; IC50 (SCD1; [2]): > 45 µM
COC(=O)N1CCC(c2noc(-c3ccc4cnn(C5COC(C)(C)C5)c4c3)n2)CC1 (stereo not drawn) [Compound 1094] | 17.4 µM | > 45 µM | 
CC(C)(C)OC(=O)N1CCC(c2noc(-c3ccnc(OC4COC4)c3)n2)CC1 [Compound 982] | 0.327 µM | 0.01 µM | 
CC(C)n1ncc2ccc(-c3noc(N4CCN(C(=O)c5ccccc5)CC4)n3)cc21 [Compound 362] |  |  | IC50 (SCD5; [3]): > 45 µM; SCD5 % Max Inhibition (SCD5; [3]): 2.26%; SCD1 % Max Inhibition (SCD1; [4]): 67.00%
CC(C)(C)OC(=O)N1CCCC(c2noc(-c3ccc4cnn(C5COC5)c4c3)n2)CC1 (stereo not drawn) [Compound 850] | 0.01 µM | > 45 µM | 
COC(=O)N1CCC(c2noc(-c3ccc(F)c(N4CCOCC4)c3)n2)CC1 [Compound 1161] | 0.0363 µM | > 45 µM | 

Compound | IC50 (SCD5; humanized yeast strain, 40 h) | IC50 (SCD1; humanized yeast strain, 40 h) | other results
COC(=O)N1CCC(c2nc(-c3ccc4cnn(C(C)C)c4c3)no2)CC1 [Compound 355] |  |  | IC50 (SCD5; [3]): > 45 µM; SCD5 % Max Inhibition (SCD5; [3]): 3.68%; SCD1 % Max Inhibition (SCD1; [4]): 71.31%
CC(C)n1ncc2ccc(-c3nc(N4CCN(C(=O)c5ncccc5F)CC4)no3)cc21 [Compound 845] | 0.637 µM | > 45 µM | 
CC(C)(C)OC(=O)N1CCN(c2nc(-c3cccc(C4CCOC4)c3)no2)CC1 (stereo not drawn) [Compound 829] | 2.2 µM | > 45 µM | 
CC(C)n1ncc2ccc(N3CC4(CCN(C(=O)OC(C)(C)C)CC4)OC3=O)cc21 [Compound 515] |  |  | IC50 (SCD5; [3]): > 45 µM; IC50 (SCD1; [4]): 16.5 µM
Clc1cnc2n1CCN(c1noc(-c3ccc4cnn(C5COC5)c4c3)n1)C2 [Compound 896] | 0.01 µM | > 45 µM | 
COC(=O)N1CCN(c2noc(-c3ccnc(OC(CO)CO)c3)n2)CC1 [Compound 1007] | > 45 µM | > 45 µM | 
O=C(N1CCN(c2noc(-c3ccc4cnn(C5COC5)c4c3)n2)CC1)C12CC(C1)C2 [Compound 843] | 0.033 µM | > 45 µM | 
O=C(c1ccccc1F)N1CCC(c2noc(-c3ccnc(Cl)c3)n2)CC1 [Compound 1132] | > 45 µM | > 45 µM | 
CC1(OC(=O)N2CC(c3nc(-c4ccc5cnn(C6COC6)c5c4)no3)C2)CC1 [Compound 724] |  |  | IC50 (SCD5; [1]): 1.25 µM; IC50 (SCD1; [2]): > 45 µM
CC(C)(C)OC(=O)N1CCC(c2noc(-c3cc(Br)c4cnn(C5COC5)c4c3)n2)CC1 [Compound 1041] | 0.01 µM | > 45 µM | 
COC(=O)N1CCC(c2nc(-c3ccnc(Cl)c3)no2)CC1 [Compound 734] |  |  | IC50 (SCD5; [1]): > 45 µM; IC50 (SCD1; [2]): > 45 µM
CCC(=O)N1CCN(c2noc(-c3ccc4cnn(C5COC5)c4c3)n2)CC(F)(F)C1 [Compound 1038] | 2.3 µM | > 45 µM | 
O=C(N1CCC(c2noc(-c3ccnc(C4CCOC4)c3)n2)CC1)C1(F)CCC1 (stereo not drawn) [Compound 1097] | 0.02 µM | > 45 µM | 
c1cc2cnn(C3COC3)c2cc1-c1nc(C2CCNCC2)no1 [Compound 752] | > 45 µM | > 45 µM | 
COC(=O)N1CCC(c2cc(-c3cc4c(cn3)cnn4C(C)C)no2)CC1 [Compound 1088] | 2.52 µM | > 45 µM | 
CC(C)N1C(=O)Cc2ccc(-c3noc(C4CCN(C(=O)c5ccccc5Cl)CC4)n3)cc21 [Compound 612] |  |  | IC50 (SCD5; [1]): 2.38 µM; IC50 (SCD1; [2]): > 45 µM
COC(=O)N1CCC(c2noc(-c3ccc4cnn([C@H]5CCOC5)c4c3)n2)CC1 [Compound 879] | 0.01 µM | 5.5 µM | 
CC(C)C(=O)N1CCC(c2noc(-c3cc(F)c4cnn(C5COC5)c4c3)n2)CC1 [Compound 1068] | 0.00375 µM | > 45 µM | 
CC(C)(C)OC(=O)N1CCC(c2nc(-c3ccc4cnn([C@H]5CCOC5)c4c3)no2)CC1 [Compound 791] | 0.01 µM | > 45 µM | 

Compound | IC50 (SCD5; humanized yeast strain, 40 h) | IC50 (SCD1; humanized yeast strain, 40 h) | other results
CC(C)n1ncc2ccc(-c3noc(C4CCN(C(=O)C5(O)CC5)CC4)n3)cc21 [Compound 779] | 15.3 µM | > 45 µM | 
CC(C)(C)OC(=O)N1CCC(c2nc(-c3ccc4cnn([C@H]5C[C@H](OC(=O)c6ccc([N+](=O)[O-])cc6)C5)c4c3)no2)CC1 [Compound 847] | > 45 µM | > 45 µM | 
O=C(c1ncccc1Cl)N1CCC(c2noc(-c3ccc4cnn(C5COC5)c4c3)n2)CC1 [Compound 695] |  |  | IC50 (SCD5; [1]): 2.39 µM; IC50 (SCD1; [2]): > 45 µM
COC(=O)N1CCC(c2noc(-c3ccc4cnn(C5CCOC5)c4c3)n2)CC1 (stereo not drawn) [Compound 813] | 0.01 µM | > 45 µM | 
CC(C)(C)OC(=O)N1C[C@@H]2[C@H](C1)[C@H]2C(=O)NCc1ccccc1 [Compound 771] | > 45 µM | > 45 µM | 
CC(C)(C)OC(=O)N1CCN(c2noc(-c3ccc4c(c3)C3(CCC3)OC4)n2)CC1 [Compound 831] | 1.2 µM | > 45 µM | 
O=C(N1CCC(c2noc(-c3ccnc(Cl)c3)n2)CC1)C1(F)CC1 [Compound 1122] | 13.2 µM | > 45 µM | 
O=C(C1CCC1)N1CCC(c2nc(-c3ccc4cnn(C5COC5)c4c3)no2)CC1 [Compound 1044] | 0.593 µM | > 45 µM | 
CC(C)(C)OC(=O)N1CCC(c2noc(N3CCc4c(cnn4C4COC4)C3)n2)CC1 [Compound 1173] | 23.4 µM | ≥ 45 µM | 
COC(=O)N1CCC(c2noc(-c3ccnc(N4CCOCC4)c3)n2)CC1 [Compound 1106] | 2.96 µM | > 45 µM | 
CC(C)n1ncc2ccc(-c3noc(N4CCC5(CCO5)CC4)n3)cc21 [Compound 744] |  |  | IC50 (SCD5; [1]): > 45 µM; IC50 (SCD1; [2]): > 45 µM
CC(C)(C)OC(=O)N1CCC(c2noc(-c3ccc4cnn(C5CS(=O)(=O)C5)c4c3)n2)CC1 [Compound 990] | 0.01 µM | > 45 µM | 
CC(C)(C)OC(=O)N1C[C@@H]2[C@H](C1)[C@H]2NC(=O)OCc1ccccc1 [Compound 774] | > 45 µM | > 45 µM | 
O=C(C1CC1)N1CCN(c2noc(-c3ccc4cnn(C5COC5)c4c3)n2)CC1 [Compound 844] | 0.015 µM | > 45 µM | 
C=C(C)c1ncn2ccc(-c3noc(C4CCN(C(=O)OC(C)(C)C)CC4)n3)cc12 [Compound 855] | > 45 µM | > 45 µM | 
CC(=O)NCCc1nn(C(C)C)c2cc(-c3noc(C4CCN(C(=O)OC(C)(C)C)CC4)n3)ccc12 [Compound 760] | > 45 µM | > 45 µM | 
CN(c1cc(-c2nc(C3CCN(C(=O)C4CC4)CC3)no2)ccn1)C1COC1 [Compound 1125] | 0.523 µM | > 45 µM | 
CC(C)(C)OC(=O)N1CCC(c2nc(-c3ccc4c(C#N)ncn4c3)no2)CC1 [Compound 899] | 26 µM | > 45 µM | 
